From patent US20060099170A1, “Compositions for inducing increased levels of beta-chemokines and methods of use therefor” (priority 2002, published 2006)
Where two headings read alike, the source gives them in different places.

Tests used:
five R5 strains of HIV-1 = assay: Antiviral activity of low concentrations of RAPA in PBMCs, panel of R5 strains; assay type: cell-based; settings: Human immunodeficiency virus 1, PBMC
Description: (§1) The following viruses were used in infection experiments, including HIV-1 IIIb, HIV-1 ADA, HIV-1 BaL, HIV-1 JRFL, HIV-1 JRCSF, and HIV-1 SF162. HIV-1 IIIb is a T cell line-adapted lab strain that uses CXCR4 for entry into cells, whereas the rest are isolates that use CCR5.
(§2) For infection of PBMCs, fresh donor PBMCs were cultured for 7 days in medium containing IL-2. On day 7, cells were exposed to the virus for 3 h. Nonadsorbed virus was removed by washing cells with PBS three times. Infected cells were cultured in IL-2 medium. Infection of MDMs was carried out as described before (Pemo, et al. 1993). Unless otherwise indicated, PBMCs were infected by using a moi of 0.001, and monocyte-derived macrophages (MDMs) were infected by using a moi of 0.002. Virus growth was monitored in culture supernatants by measuring p24 antigen levels by ELISA (NEN) or by measuring viral RT activity in an RT assay (Willey, et al., 1988).
RAPA at 0.01 nM inhibited R5 HIV-1 by 10-64% depending on the strains, whereas 0.1 nM RAPA inhibited virus replication by 15-85%. At 1 nM RAPA, all R5 viruses were inhibited by >90%.

HIV-1 ADA [1] = assay: Antiviral activity of RAPA in PBMCs (p24); assay type: cell-based; settings: Human immunodeficiency virus 1, PBMC
Description: as §1, §2
(§3) The antiviral activity of RAPA was assayed in PBMCs that had been cultured in the presence of RAPA for 7 days before infection. Cells were infected with the X4 HIV-1 IIIb and the R5 HIV-1 ADA strains. Infected cells were cultured in the presence of RAPA (same concentration as during pretreatment) for 7 additional days, during which time virus replication and cell viability were measured. […]

HIV-1 SF 162 = assay: Antiviral activity of RAPA in monocyte-derived macrophages; assay type: cell-based; settings: Human immunodeficiency virus 1, Macrophage; 0.01 nM RAPA; data not shown
MDMs = assay: Cell viability of MDMs (MTT assay); assay type: cell-based, human; settings: end of experiment (day 14)
Description: (§4) Cultures of peripheral blood mononuclear cells (PBMCs) and monocyte-derived macrophages (MDMs) were performed on normal donors as described (Poli, et al. 1993, Perno, et al., 1993). PBMCs were maintained in the presence of 100 units/ml rhIL-2 (Roche Molecular Biochemicals). Cell viability was determined by Trypan blue staining or by the MTT assay (Roche Molecular Biochemicals). RAPA was purchased from Calbiochem. The CCR5 antagonist TAK-779 was obtained from the National Institutes of Health AIDS Research and Reference Reagent Program (Rockville, Md.). CCR5 surface expression was measured on PBMCs cultured in the presence of IL-2 for 7-10 days. Staining was done as described (Lane, et al. 1999), but using CCR5 mAb 182 (R & D Systems). Background staining was determined by adding an isotype-matched control (IgG2b, R&D Systems) instead of the anti-CCR5 mAb. Data were acquired by using a FACS Calibur flow cytometer (BD Biosciences) and analyzed by using FLOWJO (Tree Star, San Carlos, Calif.).
(§5) On day 5, cells were infected with HIV-1 ADA. Infected cells were cultured in the presence of RAPA for an additional 14 days. Virus production was measured on the culture supernatants on days 7, 10, and 14 after infection.

PBMCs [2] = assay: β-chemokine levels (ELISA) in supernatants of IL-2 PBMC cultures with RAPA; assay type: cell-based, human
Description: RAPA was purchased from Calbiochem.
Levels of the β-chemokines MIP-1α, MIP-1β and RANTES were measured in culture supernatants by using ELISA kits (R & D Systems).
We next measured levels of the CCR5 ligands MIP-1α, MIP-1β, and RANTES in supernatants of RAPA-treated PBMC cultures. PBMCs from four donors were cultured in the presence of IL-2 and RAPA for 10 days. […] Among the different donors, RAPA-treated cultures contained 6-39-fold higher levels of MIP-1α than untreated cultures. Similarly, MIP-1β levels were increased 17-47-fold in the presence of RAPA as compared with untreated controls. […] Chemokine results obtained in two of the donors, showing disparity of RANTES levels in the presence of RAPA, are depicted in FIG. 8A.
The effect of RAPA on MIP-1β protein levels provided information regarding the mechanism by which RAPA increases β-chemokine levels. To this end, stimulated PBMCs from two normal donors and from a CCR5-null donor were cultured in the presence of RAPA as in previous experiments. MIP-1β levels in supernatants were evaluated on day 10. Representative results obtained in one of the normal donors are shown next to the results obtained on the CCR5-null donor (FIG. 8B).
PBMCs from a healthy donor were cultured in the presence of IL-2 and Rapamycin. On day 7, chemokines content in the supernatant was measured by ELISA and cell viability was determined by the MTT assay.

HIV-1 IIIb = assay: Antiviral activity of RAPA in PBMCs (p24); assay type: cell-based; settings: Human immunodeficiency virus 1, IIIB, PBMC
Description: as §1, §2, §3

[3] = renal transplant recipients, cited from earlier work
[4] = Tolerability of Rapamycin in healthy volunteers; assay type: in vivo, human; settings: 5 healthy volunteers, 2 mg/day after 6 mg loading dose, 14 days
Description: HIV-1 has been shown in most instances to use the chemokine receptor, CCR5, as a co-receptor for entry into macrophages and CD4 lymphocytes. The natural ligands for the CCR5 co-receptor are proteins called β-Chemokines. […] To assess the activity of β-Chemokine production levels and its effects on CCR5 receptors in vivo an open-labeled, non-randomized observational trial was performed in which 5 healthy volunteers were given 2 mg/day of Rapamycin, following a 6 mg loading dose, for 14 days. Peripheral blood for determining β-Chemokines was obtained at the screening visit, days 7 and 14 of the Rapamycin dosing, and at day 28 (which was two weeks following the last dose of Rapamycin). All 5 subjects completed the study and Rapamycin was well-tolerated.

PBMCs [5] = assay: PBMC proliferation and viability (MTT assay)
Description: as §4
Donor PBMCs were cultured in the presence of IL-2 and RAPA (10-fold serial dilutions, from 10^4 to 0.01 nM).

HIV-1 ADA [6] = assay: Antiviral activity of RAPA in monocyte-derived macrophages (RT assay); assay type: cell-based
Description: as §4, §2, §5
In the above-described experiment, monocytes had been pretreated with RAPA during the 5-day differentiation period. To control for the possible interference of RAPA with the process of monocyte differentiation, a new infection experiment in which RAPA was not present during the 5-day monocyte differentiation period was designed. To this end, fresh monocytes were cultured for 5 days in the absence of RAPA. On day 5, cells were infected with HIV-1 ADA and then exposed to RAPA.

activated PBMCs = assay: β-chemokine levels in activated PBMCs cultured with Vitamin E; assay type: cell-based, human; settings: day 6 after addition of Vitamin E, IL-2, FIG. 12
Description: B-chemokines levels were measured in activated PBMCs cuftured in the presence of Vitamin E, an antioxidant reported to induce G1 cycle arrest. PBMCs from a healthy donor were activated under the presence of the indicated stimuli for 72 h. Activated cells were cultured in the presence of IL-2 and Vitamin E. Supernatants were evaluated for β-chemokine content on day 6 after addition of Vitamin E. Cell viability was measured by MTT assay.

resting CD4 T cells = assay: Cell viability / proliferation of patients' CD4 T cell cultures (trypan blue); assay type: cell-based, human; settings: 5 μg/ml VE, days 7 or 14; data not shown
Description: (§6) Blood (50 ml) was drawn from 10 patients on antiretroviral therapy, whose viral load were <400 copies/ml and whose CD4 counts were >300/μl. Resting CD4 T cells were purified by negative selection using antibody-labeled magnetic beads (Dynal, Lake Success, N.Y.). Purified cells were activated by co-culture with γ-irradiated PBMCs from normal donors in the presence of 1 μg/ml anti-CD3 antibody (Coulter, Miami, Fla.) and 100 units/ml rhIL-2 (Roche, Indianapolis, Ind.). Cultures were set up in the absence or continuous presence of 5 μg/ml of VE (Vitamin E succinate, Sigma, St. Louis, Mo.), with medium replenishment every 3 or 4 days. Cultures were maintained for 14 days. Virus production was monitored by measuring p24 antigen (NEN, Boston, Mass.) in the culture supernatants on days 7 and 14. Cell viability was measured by trypan blue staining.

HIV-1 = HIV-1 production upon activation of patients' resting CD4 T cells (p24 ELISA); assay type: cell-based; settings: 5 μg/ml VE
Description: HIV-1 gene expression on latently infected resting T cells is dependent on host transcriptional factors, such as NF-κB, that are induced on activated cells. In the present study we have evaluated the in vitro effect of adding Vitamin E (VE) to cultures of patients' resting CD4 T cells under conditions of cellular activation that promote virus expression.
as §6

[7] = IL-2 and RAPA for 10 days, four donors

Compound: CO[C@H]1C[C@@H]2CC[C@@H](C)[C@@](O)(O2)C(=O)C(=O)N2CCCC[C@H]2C(=O)O[C@H]([C@H](C)C[C@@H]2CC[C@@H](O)[C@H](OC)C2)CC(=O)[C@H](C)/C=C(\C)[C@@H](O)[C@@H](OC)C(=O)[C@H](C)C[C@H](C)/C=C/C=C/C=C/1C [RAPA, rapamycin]
- inhibition at 10 pM (five R5 strains of HIV-1; read-out: inhibition of R5 HIV-1): 10 to 64%
- inhibition at 0.001 µM (five R5 strains of HIV-1; read-out: inhibition of all R5 viruses): > 90%
- inhibition at 0.0001 µM (five R5 strains of HIV-1; read-out: inhibition of virus replication (R5 HIV-1)): 15 to 85%
- inhibition at 0.01 µM (HIV-1 ADA [1]; 10 nM RAPA, average of seven experiments (range of 88-97%)): 91%
- inhibition at 0.1 µM (HIV-1 ADA [1]; 100 nM RAPA, seven experiments (range of 92-99%)): 94%
- inhibition at 10 pM (HIV-1 SF 162): 45%
- RAPA concentrations at which cell viability was reduced (MDMs): > 10 nM
- MIP-1β levels increase (PBMCs [2]; CCR5-null donor, day 10): 1.2 fold
- MIP-1α levels, RAPA-treated versus untreated cultures (PBMCs [2]; [7]): 6-39 fold
- MIP-1β levels increase compared with untreated controls (PBMCs [2]; [7]): 17-47 fold
- MIP-1β protein increase compared with RAPA-untreated control (PBMCs [2]; normal donor, day 10): 9.3 fold
- inhibition at 0.01 µM (HIV-1 IIIb; 10 nM RAPA (range of 5-25%)): 13.5%
- inhibition at 0.1 µM (HIV-1 IIIb; 100 nM RAPA (range 29-60%)): 32%
- therapeutic through levels ([3]; daily 2 mg): 9.3 ± 4.4 nM
- therapeutic through levels ([3]; daily 5 mg): 18.9 ± 8 nM
- tolerability [4]: well-tolerated
- drug concentrations at which reduced proliferation was detected (PBMCs [5]; IL-2, MTT assay on day 7): ≥ 1 nM
- drug concentrations at which drug toxicity was observed (PBMCs [5]; data not shown): above 1 nM
- inhibition of virus replication (HIV-1 ADA [6]; 1 nM RAPA added after infection, no RAPA during differentiation, day 14, two donors): ~80%
- inhibition at 0.001 µM (HIV-1 ADA [6]; Human immunodeficiency virus 1, Macrophage, 336 h, 1 nM RAPA added after infection, no RAPA during differentiation, day 14, two donors, read-out: inhibition of virus replication): ~60%
- inhibition at 10 pM (HIV-1 ADA [6]; Human immunodeficiency virus 1, Macrophage, 0.01 nM RAPA, data not shown): 64%
- inhibition of virus production (HIV-1 ADA [6]; RAPA 0.1-100 nM, day 14, monocytes pretreated 5 days): 70-95%

Compound: Cc1c(C)c2c(c(C)c1O)CC[C@@](C)(CCC[C@H](C)CCC[C@H](C)CCCC(C)C)O2 [Vitamin E, alpha-tocopherol]
- levels of β-chemokines (activated PBMCs): increased levels of β-chemokines
- cell viability and cell proliferation (resting CD4 T cells): Neither cell viability nor cell proliferation was affected
- virus production, mean Log p24 (HIV-1; day 14, 9 patients, log of p24 pg/ml, absence of VE 3.58, p=0.016): 2.06
- cultures with positive virus isolation (HIV-1; day 14, untreated 9/10): 7/10
